According to patent US11473153B2, “Device and methods of using device for separation of bacteria from complex samples” (priority 2014, dated 2022):
Like-named read-outs stand apart in the source and are kept apart here.

Tests used:
[1] = system: unspecific bacteria grown from dirt
E. coli O157H7 = conditions: Eth20%/GroundMeat + O157H7/Media, 30 min, 1.5 ml device
S. typhimurium [2] = conditions: Eth20%/Media + Salmonella/Media, 1.5 ml device
bacteria = conditions: cited from earlier work
S. typhimurium [3] = test: Four-channel membrane microfluidic chip, separation by chemoattractant (FIG. 9B); format: cell-based
Excerpt: FIG. 9A depicts a diagram of a microfluidic chip with four channels that overlap in the vertical direction, with each channel being separated by a semipermeable membrane. Each channel has an inlet/outlet on either end of the chip, each channel can be filled using regular pipettes. The four channels overlap in the vertical direction to maximize contact are amongst channels and optimizes the time required for the chemical gradients to form. The membranes between the channels prevent fluid flow while allowing the chemical gradients to form and bacteria to migrate between the channels. […] The contents of each channel was extracted after approximately 30 minutes and the bacterial density measured using a cell counter (left hand bar in each column). […] Control experiments were also performed to evaluate random dispersion of bacteria to channels 1 and 3 filled with buffer; very few of the bacteria moved away from channel 2 without the present of the chemoattractant (middle bars in each column).

S. typhimurium [4] = test: Microliter-scale sample chamber device, separation run (FIG. 12); format: cell-based; conditions: 30 minutes
Experimental: Experimental and control separation runs were performed in the device and results recorded as disclosed below. FIG. 12 depicts an experimental run on the device in which 2 mM of alpha-methylaspartate (chemo-attractant) was diluted in chemotaxis buffer was introduced in the extraction chamber. […] Deionized water was introduced in the repellent chamber. After 30 minutes, the contents of each chamber was recovered and the amount of bacteria in each chamber counted.

Row | SMILES | Chemoattractant (bacteria for which the substance is one) (bacteria) | Chemorepellent (bacteria for which the substance is one) (bacteria) | further results
1 | CCO [Eth20%, Ethanol] | – | – | movement of bacteria over time ([1]; 50% ethanol chemorepellent gradient, FIG. 4B/4C): clearly seen moving away from the ethanol; state of bacteria next to the maximum concentration of ethanol ([1]; 50% ethanol chemorepellent in horizontal channel, FIG. 4B): non-motile and putatively dead; E: extraction efficiency (E. coli O157H7; Meat diluted 1:1): 77.60%; E: extraction efficiency (E. coli O157H7; Meat diluted 1:2): 109.80%; E: extraction efficiency (E. coli O157H7; Meat diluted 1:3): 57.00%; E: extraction efficiency (S. typhimurium [2]; 25 min): 76.4% + −8%; E: extraction efficiency (S. typhimurium [2]; 30 min): 87.9% + −7%
2 | N[C@@H](Cc1c[nH]c2ccccc12)C(=O)O [Tryptophan] | B. subtilis, C. vinosum | E. coli, S. typhimurium | –
3 | O=C(O)c1ccccc1 [Benzoate] | P. putida | E. coli, S. typhimurium | –
4 | [Ni+2] [Ni^2] | (no effect on S. typhimurium) | E. coli | –
5 | CC(C)[C@H](N)C(=O)O [Valine] | B. subtilis | E. coli, S. typhimurium | –
6 | CC(C)C[C@H](N)C(=O)O [Leucine] | B. subtilis | E. coli, S. typhimurium | –
7 | O=C(O)CC(O)(CC(=O)O)C(=O)O [Citrate] | S. typhimurium | (no effect on E. coli) | –
8 | [H+] [H^+] | R. sphaeroids | E. coli, C. vinosum | –
9 | OC[C@H]1O[C@H](O[C@H]2[C@H](O)[C@@H](O)C(O)O[C@@H]2CO)[C@H](O)[C@@H](O)[C@@H]1O (mixture of isomers) [Maltose] | E. coli | (no effect on S. typhimurium) | –
10 | [Co+2] [Co^2+] | (no effect on S. typhimurium) | E. coli | –
11 | O [OH^−] | R. sphaeroids | E. coli, C. vinosum | –
12 | CC(N)(CC(=O)O)C(=O)O (stereo not drawn) [α-methyl aspartate] | – | – | bacterial density per channel (cell counter) (S. typhimurium [3]; 2 mM in channel 1, S. typhimurium in channel 2, buffer in channel 3, approximately 30 minutes): most bacteria crossed over to the channel containing maximal concentration of chemoattractant; bacterial density per channel, gravity control (S. typhimurium [3]; buffer and chemoattractant introduced through the opposite channels): the results were the same; concentration of bacteria in the extraction chamber normalized to the initial concentration (S. typhimurium [4]; 2 mM in chemotaxis buffer in extraction chamber, sample chamber about 110 μL): about 2 times higher than the initial concentration; bacteria in the repellent chamber (S. typhimurium [4]; 2 mM in extraction chamber, deionized water in repellent chamber): no bacteria were found
13 | Oc1ccccc1 [Phenol] | E. coli | S. typhimurium | –
14 | CC(=O)O [Acetate] | C. vinosum | E. coli, S. typhimurium | –
